Entries after “also recorded” stand apart in the source; their conditions may differ.
Experiments:
[1] = Body weight of mice fed LFD or HFD with or without CDDO-EA in the chow for 6 weeks; assay type: in vivo, C57B16/J mice
Excerpt: To assess the protective effects of CDDO-EA from obesity and insulin resistance, C57B16/J mice (6-8 weeks old, male, strain #000664, The Jackson Laboratory) were used. The animals were fed a Low Fat diet (LFD) (10% total calories from fat, […]) or a High Fat diet (HFD) (60% of total calories from fat) incorporated with or without CDDO-EA (chow containing 0.04% CDDO-EA) for six weeks. Feeding groups: The mice were put into one of four groups: • (i) HFD (60% total calories from fat), • (ii) HFD+0.04% CDDO-EA, • (iii) LFD (10% total calories from fat), • (iv) LFD+0.04% CDDO-EA. Unlike Shin et al. and Camer et al., where the CDDO was administered via gavage or in the drinking water, the present studies provide for a feed material (veterinary chow mix) formulated to include 400 mg CDDO-EA in 1 kilogram of veterinary chow, which is 0.04% CDDO-EA in 1 kilogram of veterinary chow. […] This is because the amount of chow without CDDO-EA (LFD) consumed by the animals was approximately the same amount of chow with CDDO-EA consumed by the animals (LFD+CDDO-EA) (See Table 3). Data were statistically analyzed by One-Way ANOVA, Two-Way ANOVA with repeated measures, or Two-Way ANOVA with Tukey's multiple comparison test. Throughout the collection of blood samples, OGTTs, and measurement of bodyweight, mice were unrestrained and awake. Blood samples were collected via tail snip before start of experimental feeding and then every two weeks. Oral glucose tolerance tests (OGTTs) were performed after the six-week experimental feeding, and blood samples were collected via tail snip during the OGTT. For OGTT, mice were given 2 g of glucose/kg of body weight by gavage after a five hour fast (36). Glucose levels were measured using a glucometer (Contour), and insulin concentrations were measured using an ELISA (Mercodia). Mice were weighed once a week. Glucose and insulin serum levels were measured every two weeks.

[2] = system: p65 NF-κB; test: NF-κB p65 nuclear translocation (immunofluorescence and subcellular fractionation) in L6-GLUT4myc myotubes; assay type: cell-based, rat
Procedure: NF-κB is bound to IκB-α in the cytoplasm. Upon activation of the IKK/NF-κB/IκB pathway, IκB is degraded, freeing NF-κB to translocate into the nucleus and activate the transcription of pro-inflammatory mediators. To visualize the localization of NF-κB, immunofluorescence and confocal microscopy studies were performed in L6-GLUT4myc myo-tubes pre-treated with CDDO-EA for 1 h and then exposed to LPS for 1 h. The untreated muscle cells show a basal-level expression of p65 NF-κB in the nucleus (FIG. 14A).
For subcellular fractionation, differentiated L6-GLUT4myc myotubes were pre-treated with CDDO-EA 500 nM for 1 h follow by LPS 100 ng/ml (E. coli O111: B4, Sigma Aldrich) treatment for 1 h, and the nuclear and cytosolic fractions were isolated using the Nuclear Extraction Kit (Panomics) according to the manufacturer's instructions. The extracted fractions were then analyzed by Western blotting as described.
Immunofluorescence microscopy: L6-GLUT4myc myoblasts (4×10^4 cells/ml, 0.2 ml/well) were plated onto Nunc Lab-TekII 8-chamber slides (Thermo Fisher Scientific) and differentiated for 7 days. Myotubes were pre-treated with CDDO-EA 500 nM for 1 h followed by LPS 100 ng/ml (E. coli O111: B4, Sigma Aldrich) treatment for 1 h. […]

[3] = system: GLUT4; test: GLUT4myc translocation by immunofluorescence in L6-GLUT4myc myotubes; assay type: cell-based, rat
Procedure: Immunofluorescence and confocal microscopy were employed to visualize the localization of c-myc epitope-tagged GLUT4 in L6-GLUT4myc myotubes treated with CDDO-EA for 1 h. L6-GLUT4myc myotubes were also treated with insulin alone for 15 min as a positive control.
To examine the properties of CDDO-EA in regulating glucose metabolism in the skeletal muscle, the present study examined whether CDDO-EA induces translocation of GLUT4 to the cell surface (FIG. 16A). Immunofluorescence and confocal microscopy were used to visualize the localization of c-myc epitope-tagged GLUT4 in L6-GLUT4myc cells.
Immunofluorescence microscopy: L6-GLUT4myc myoblasts (4×10^4 cells/ml, 0.2 ml/well) were plated onto Nunc Lab-TekII 8-chamber slides (Thermo Fisher Scientific) and differentiated for 7 days. Myotubes were pre-treated with CDDO-EA 500 nM for 1 h followed by LPS 100 ng/ml (E. coli O111: B4, Sigma Aldrich) treatment for 1 h. After treatment, myotubes were fixed, permeabilized, and stained with anti-NF-κB p65 primary antibody (cat #sc-372, 1:100, Santa Cruz Biotechnology) and a goat anti-rabbit secondary antibody conjugated with Alexa Fluor® 488 (cat #A32731, 1:500, Invitrogen) as previously described. For GLUT4myc cell membrane staining, myotubes were pre-treated with CDDO-EA 500 nM for 1 h followed by LPS 100 ng/ml (E. coli 0111: B4, Sigma Aldrich) treatment for 1 h. Insulin 100 nM (cat #19278, Sigma Aldrich) treatment was for 15 min. After CDDO-EA, LPS, and insulin treatment, myotubes were fixed without permeabilization and stained with anti-c-myc primary antibody (cat #C3956, 1:100, Sigma Aldrich) and a goat anti-rabbit secondary antibody conjugated with Alexa Fluor® 488 (cat #A32731, 1:500, Invitrogen) as previously described.

CCNC(=O)[C@]12CCC(C)(C)C[C@H]1C1C(=O)C=C3[C@@]4(C)C=C(C#N)C(=O)C(C)(C)[C@@H]4CC[C@@]3(C)[C@]1(C)CC2 (stereo partly drawn) [CDDO-EA, (4aS,6aR,6bS,8aR,12aS,14bS)-11-cyano-N-ethyl-2,2,6a,6b,9,9,12a-heptamethyl-10,14-dioxo-1,3,4,5,6,6a,6b, 7,8,8a,9,10,12a, 14,14a, 14b-hexadecahydropicene-4a (2H)-carboxamide]
difference in weight between mice fed a high fat diet and mice fed a high fat diet incorporated with CDDO-EA ([1]; 0.04% CDDO-EA, 6 weeks): 66.8%
Average Weight (g) of Mice ([1]; HFD + CDDO-EA (0.04%), week 1): 23.4 ± 0.5 g
Average Weight (g) of Mice ([1]; HFD + CDDO-EA (0.04%), week 2): 23.2 ± 0.5 g
Average Weight (g) of Mice ([1]; HFD + CDDO-EA (0.04%), week 3): 24.6 ± 0.5 g
Average Weight (g) of Mice ([1]; HFD + CDDO-EA (0.04%), week 4): 24.1 ± 0.5 g
Average Weight (g) of Mice ([1]; HFD + CDDO-EA (0.04%), week 5): 25.4 ± 0.5 g
Average Weight (g) of Mice ([1]; HFD + CDDO-EA (0.04%), week 6): 25.3 ± 0.5 g
body weight gain / obesity ([1]; HFD + CDDO-EA (400 mg/kg diet, 0.04%), 6 weeks): did not have a significant increase in body weight; also recorded: significantly blocked gain weight; also recorded: prevented the excess weight gain; also recorded: inhibits weight gain and obesity in vivo; also recorded: did not evidence a significant weight gain; also recorded: prevents obesity
Average Weight (g) of Mice ([1]; HFD + CDDO-EA (diet containing 0.04% CDDO-EA), week 0): 23.8 ± 0.5 g
significant weight gain prevented ([1]; HFD incorporated with 0.04% CDDO-EA): 66.8%
Average Weight (g) of Mice ([1]; LFD + CDDO-EA (0.04%), week 1): 24.4 ± 0.9 g
Average Weight (g) of Mice ([1]; LFD + CDDO-EA (0.04%), week 2): 24.4 ± 0.8 g
Average Weight (g) of Mice ([1]; LFD + CDDO-EA (0.04%), week 3): 25.8 ± 0.7 g
Average Weight (g) of Mice ([1]; LFD + CDDO-EA (0.04%), week 4): 25.4 ± 0.7 g
Average Weight (g) of Mice ([1]; LFD + CDDO-EA (0.04%), week 5): 26.4 ± 0.6 g
Average Weight (g) of Mice ([1]; LFD + CDDO-EA (0.04%), week 6): 26.0 ± 0.4 g
Average Weight (g) of Mice ([1]; LFD + CDDO-EA (diet containing 0.04% CDDO-EA), week 0): 25.5 ± 1.0 g
LPS-induced p65 NF-κB nuclear translocation ([2]; 500 nM CDDO-EA 1 hr then 100 ng/ml LPS 1 hr): reduces LPS-induced p65 NF-κB nuclear staining; also recorded: decreased both cytoplasmic and nuclear localization of p65 NF-κB; also recorded: prevented NF-κB translocation to the nucleus
NF-κB activation ([2]; CDDO-EA alone, no LPS): had no effect on NF-κB activation
CDDO-EA-stimulated GLUT4myc translocation in presence of LPS ([3]; 500 nM CDDO-EA 1 h then 100 ng/ml LPS 1 h): did not inhibit CDDO-EA-stimulated GLUT4myc translocation; also recorded: did not prevent CDDO-EA-stimulated GLUT4myc translocation to the cell surface
GLUT4myc translocation to the cell surface ([3]; CDDO-EA 500 nM 1 h, insulin 100 nM 15 min): induced GLUT4myc translocation to the cell surface; also recorded: activates GLUT4 translocation to cell membrane and p38 phosphorylation
